Earlier results, collected in PubChem BioAssay AID1259409 (Chemical Carcinogenesis Research Information System (CCRIS), 2018).
Several values for one entry are separate records, joined by “and”; a condition that tells them apart may be missing. Equal values may be shown once.

Tested on: rodent chemically induced tumor inhibition, incidence and multiplicity
Test: CCRIS tumor inhibitor studies
Conditions: Route [Inhibitor]: ORAL, Species: RAT

SMILES	tumour outcome (control, treated, inhibition, significance) (Carcinogen: DIETHYLNITROSAMINE, 55-18-5, Dose [Inhibitor]: 0, 125 PPM IN DIET BEGINNING 1 WK POST CARCINOGEN DOSE (STUDY DURATION: 36 WK), Strain/Sex: F344/MALE, Target Tissue: Type of Lesion: LIVER: TUMOR, Dose [Carcinogen]: 200 MG/KG BW ONCE, Promoter: PHENOBARBITAL, 50-06-6)	tumour outcome (control, treated, inhibition, significance) (Carcinogen: N-METHYL-N'-NITRO-N-NITROSOGUANIDINE, 70-25-7, Dose [Inhibitor]: 0, 100 PPM IN DIET FOR FIRST 25 WK (STUDY DURATION: 55 WK), Strain/Sex: WISTAR/MALE, Target Tissue: Type of Lesion: DUODENUM: ADENOMA, ADENOCARCINOMA OR SARCOMA, Dose [Carcinogen]: 100 MG/L IN DRINKING WATER FOR FIRST 25 WK, Promoter: GLYOXAL, 107-22-2)	tumour outcome (control, treated, inhibition, significance) (Carcinogen: N-METHYL-N'-NITRO-N-NITROSOGUANIDINE, 70-25-7, Dose [Inhibitor]: 0, 100 PPM IN DIET FOR FIRST 25 WK (STUDY DURATION: 55 WK), Strain/Sex: WISTAR/MALE, Target Tissue: Type of Lesion: FORESTOMACH: PAPILLOMA, Dose [Carcinogen]: 100 MG/L IN DRINKING WATER FOR FIRST 25 WK, Promoter: GLYOXAL, 107-22-2)	tumour outcome (control, treated, inhibition, significance) (Carcinogen: N-METHYL-N'-NITRO-N-NITROSOGUANIDINE, 70-25-7, Dose [Inhibitor]: 0, 100 PPM IN DIET FOR FIRST 25 WK (STUDY DURATION: 55 WK), Strain/Sex: WISTAR/MALE, Target Tissue: Type of Lesion: GASTROINTESTINAL TRACT (UPPER): BENIGN OR MALIGNANT TUMOR, Dose [Carcinogen]: 100 MG/L IN DRINKING WATER FOR FIRST 25 WK, Promoter: GLYOXAL, 107-22-2)	tumour outcome (control, treated, inhibition, significance) (Carcinogen: N-METHYL-N'-NITRO-N-NITROSOGUANIDINE, 70-25-7, Dose [Inhibitor]: 0, 100 PPM IN DIET FOR FIRST 25 WK (STUDY DURATION: 55 WK), Strain/Sex: WISTAR/MALE, Target Tissue: Type of Lesion: GLANDULAR STOMACH: ADENOMA, ADENOCARCINOMA OR SARCOMA, Dose [Carcinogen]: 100 MG/L IN DRINKING WATER FOR FIRST 25 WK, Promoter: GLYOXAL, 107-22-2)	tumour outcome (control, treated, inhibition, significance) (Carcinogen: N-METHYL-N'-NITRO-N-NITROSOUGUANIDINE, 70-25-7, Dose [Inhibitor]: 0, 25 PPM IN DIET FOR THE DURATION OF THE STUDY (STUDY DURATION: 55 WK), Strain/Sex: WISTAR/MALE, Target Tissue: Type of Lesion: BILE DUCT: CHOLANGIOMA, Dose [Carcinogen]: 100 MG/L IN DRINKING WATER FOR FIRST 25 WK, Promoter: GLYOXAL, 107-22-2)	tumour outcome (control, treated, inhibition, significance) (Carcinogen: N-METHYL-N'-NITRO-N-NITROSOUGUANIDINE, 70-25-7, Dose [Inhibitor]: 0, 25 PPM IN DIET FOR THE DURATION OF THE STUDY (STUDY DURATION: 55 WK), Strain/Sex: WISTAR/MALE, Target Tissue: Type of Lesion: FORESTOMACH: PAPILLOMA, Dose [Carcinogen]: 100 MG/L IN DRINKING WATER FOR FIRST 25 WK, Promoter: GLYOXAL, 107-22-2)	tumour outcome (control, treated, inhibition, significance) (Carcinogen: N-METHYL-N'-NITRO-N-NITROSOUGUANIDINE, 70-25-7, Dose [Inhibitor]: 0, 25 PPM IN DIET FOR THE DURATION OF THE STUDY (STUDY DURATION: 55 WK), Strain/Sex: WISTAR/MALE, Target Tissue: Type of Lesion: GASTROINTESTINAL TRACT (UPPER): BENIGN OR MALIGNANT TUMOR, Dose [Carcinogen]: 100 MG/L IN DRINKING WATER FOR FIRST 25 WK, Promoter: GLYOXAL, 107-22-2)	tumour outcome (control, treated, inhibition, significance) (Carcinogen: N-METHYL-N'-NITRO-N-NITROSOUGUANIDINE, 70-25-7, Dose [Inhibitor]: 0, 25 PPM IN DIET FOR THE DURATION OF THE STUDY (STUDY DURATION: 55 WK), Strain/Sex: WISTAR/MALE, Target Tissue: Type of Lesion: GLANDULAR STOMACH: ADENOMA, ADENOCARCINOMA OR SARCOMA, Dose [Carcinogen]: 100 MG/L IN DRINKING WATER FOR FIRST 25 WK, Promoter: GLYOXAL, 107-22-2)	tumour outcome (control, treated, inhibition, significance) (Carcinogen: N-METHYL-N'-NITRO-N-NITROSOUGUANIDINE, 70-25-7, Dose [Inhibitor]: 0, 100 PPM IN DIET FOR FIRST 25 WK (STUDY DURATION: 55 WK), Strain/Sex: WISTAR/MALE, Target Tissue: Type of Lesion: BILE DUCT: CHOLANGIOMA, Dose [Carcinogen]: 100 MG/L IN DRINKING WATER FOR FIRST 25 WK, Promoter: GLYOXAL, 107-22-2)	tumour outcome (control, treated, inhibition, significance) (Carcinogen: N-METHYL-N'-NITRO-N-NITROSOUGUANIDINE, 70-25-7, Dose [Inhibitor]: 0, 100 PPM IN DIET FOR FIRST 25 WK (STUDY DURATION: 55 WK), Strain/Sex: WISTAR/MALE, Target Tissue: Type of Lesion: DUODENUM: ADENOMA, ADENOCARCINOMA OR SARCOMA, Dose [Carcinogen]: 100 MG/L IN DRINKING WATER FOR FIRST 25 WK, Promoter: GLYOXAL, 107-22-2)	tumour outcome (control, treated, inhibition, significance) (Carcinogen: N-METHYL-N'-NITRO-N-NITROSOUGUANIDINE, 70-25-7, Dose [Inhibitor]: 0, 100 PPM IN DIET FOR FIRST 25 WK (STUDY DURATION: 55 WK), Strain/Sex: WISTAR/MALE, Target Tissue: Type of Lesion: FORESTOMACH: PAPILLOMA, Dose [Carcinogen]: 100 MG/L IN DRINKING WATER FOR FIRST 25 WK, Promoter: GLYOXAL, 107-22-2)	tumour outcome (control, treated, inhibition, significance) (Carcinogen: N-METHYL-N'-NITRO-N-NITROSOUGUANIDINE, 70-25-7, Dose [Inhibitor]: 0, 100 PPM IN DIET FOR FIRST 25 WK (STUDY DURATION: 55 WK), Strain/Sex: WISTAR/MALE, Target Tissue: Type of Lesion: GASTROINTESTINAL TRACT (UPPER): BENIGN OR MALIGNANT TUMOR, Dose [Carcinogen]: 100 MG/L IN DRINKING WATER FOR FIRST 25 WK, Promoter: GLYOXAL, 107-22-2)	tumour outcome (control, treated, inhibition, significance) (Carcinogen: N-METHYL-N'-NITRO-N-NITROSOUGUANIDINE, 70-25-7, Dose [Inhibitor]: 0, 100 PPM IN DIET FOR FIRST 25 WK (STUDY DURATION: 55 WK), Strain/Sex: WISTAR/MALE, Target Tissue: Type of Lesion: GLANDULAR STOMACH: ADENOMA, ADENOCARCINOMA OR SARCOMA, Dose [Carcinogen]: 100 MG/L IN DRINKING WATER FOR FIRST 25 WK, Promoter: GLYOXAL, 107-22-2)	tumour outcome (control, treated, inhibition, significance) (Carcinogen: 4-NITROQUINOLINE-1-OXIDE [56-57-5], Dose [Inhibitor]: 100 PPM IN DIET FOR 10 WK BEGINNING 1 WK PRIOR TO FIRST CARCINOGEN DOSE (STUDY DURATION: 32 WK), Strain/Sex: F344/MALE, Target Tissue: Type of Lesion: TONGUE: SQUAMOUS CELL PAPILLOMA, Dose [Carcinogen]: 20 PPM FOR 8 WK IN DRINKING WATER (STUDY DURATION: 32 WK), Promoter: NONE)	tumour outcome (control, treated, inhibition, significance) (Carcinogen: 4-NITROQUINOLINE-1-OXIDE [56-57-5], Dose [Inhibitor]: 100 PPM IN DIET FOR 22 WK BEGINNING 1 WK POST LAST CARCINOGEN DOSE (STUDY DURATION: 31 WK), Strain/Sex: F344/MALE, Target Tissue: Type of Lesion: TONGUE: SQUAMOUS CELL PAPILLOMA, Dose [Carcinogen]: 20 PPM FOR 8 WK IN DRINKING WATER (STUDY DURATION: 32 WK), Promoter: NONE)	tumour outcome (control, treated, inhibition, significance) (Carcinogen: 4-NITROQUINOLINE-1-OXIDE [56-57-5], Dose [Inhibitor]: 500 PPM IN DIET FOR 10 WK BEGINNING 1 WK PRIOR TO FIRST CARCINOGEN DOSE (STUDY DURATION: 32 WK), Strain/Sex: F344/MALE, Target Tissue: Type of Lesion: TONGUE: SQUAMOUS CELL PAPILLOMA, Dose [Carcinogen]: 20 PPM FOR 8 WK IN DRINKING WATER (STUDY DURATION: 32 WK), Promoter: NONE)	tumour outcome (control, treated, inhibition, significance) (Carcinogen: 4-NITROQUINOLINE-1-OXIDE [56-57-5], Dose [Inhibitor]: 500 PPM IN DIET FOR 22 WK BEGINNING 1 WK POST LAST CARCINOGEN DOSE (STUDY DURATION: 31 WK), Strain/Sex: F344/MALE, Target Tissue: Type of Lesion: TONGUE: SQUAMOUS CELL PAPILLOMA, Dose [Carcinogen]: 20 PPM FOR 8 WK IN DRINKING WATER (STUDY DURATION: 32 WK), Promoter: NONE)
Nc1nc(N)nc(-c2cc(Cl)ccc2Cl)n1	14/14 (100%), 0/15 (0%), 100%, not calculated	6/12 (50%), 4/16 (25%), 50%, not significant	3/12 (25%), 1/16 (6%), 76%, not significant	11/12 (92%), 9/16 (56%), 39%, p<0.05	9/12 (75%), 6/16 (38%), 49%, p<0.05	1/12 (8%), 0/12 (0%), 100%, not significant	3/12 (25%), 1/12 (8%), 68%, not significant	11/12 (92%), 7/12 (58%), 37%, not significant	9/12 (75%), 5/12 (42%), 44%, not significant	1/12 (8%), 0/12 (0%), 100%, not significant and 1/12 (8%), 0/15 (0%), 100%, not significant	6/12 (50%), 4/12 (33%), 34%, not significant and 6/12 (50%), 4/15 (20%), 60%, not significant	3/12 (25%), 3/12 (25%), 0%, not significant and 3/12 (25%), 1/15 (7%), 72%, not significant	11/12 (92%), 5/12 (42%), 54%, p<0.02 and 11/12 (92%), 6/15 (40%), 57%, p<0.01	9/12 (75%), 3/12 (25%), 67%, p<0.02 and 9/12 (75%), 5/15 (33%), 56%, p<0.02	–	–	–	–
O=c1c(O)c(-c2ccc(O)cc2O)oc2cc(O)cc(O)c12	–	–	–	–	–	–	–	–	–	–	–	–	–	–	9/25 (36%), 3/19 (16%), 56%, not significant and 14/25 (56%), 1/19 (5%), 91%, p=0.0004	9/25 (36%), 0/20 (0%), 100%, p=0.003 and 14/25 (56%), 1/20 (5%), 91%, p=0.0003	9/25 (36%), 2/20 (10%), 72%, p=0.045 and 14/25 (56%), 0/20 (0%), 100%, p=0.00003	14/25 (56%), 1/20 (5%), 91%, p=0.0003
